Among the test systems are A549 NSCLC; HOP-62 NSCLC; MDA-MB-435; SF-539 CNS; UO-31 renal; DU-145 prostate; OVCAR-5 ovarian; EKVX NSCLC; RXF 393 renal; HCT-15 colon.
Common to all, as to test: inhibition of tumour cell growth, NCI panel, 48 h

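Exposure lasted 48 hours, with cells grown in 96-well plates and compounds tested at five concentrations. GI50 is the concentration that inhibits growth by half. TGI is the concentration that stops growth completely.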

Regarding `CC1(/C=C/c2ccc(-c3ccccc3)cc2)CCn2cnc3ncnc(c32)N1O` (stereo not given), the GI50 was 466 nM in the assay with A549 NSCLC; 366 nM in the assay on HOP-62 NSCLC; 646 nM in the assay with MDA-MB-435; 388 nM in the assay with SF-539 CNS; 162 nM in the assay with UO-31 renal; 530 nM in the assay on DU-145 prostate. Further, the GI50 in the assay on OVCAR-5 ovarian is 623 nM; in the assay on EKVX NSCLC it was 305 nM; in the assay with RXF 393 renal, 880 nM; in the assay with HCT-15 colon it was 146 nM. The TGI with A549 NSCLC is 23500 nM; with HOP-62 NSCLC, 16400 nM; with MDA-MB-435, 39600 nM; in the assay with SF-539 CNS it was 5550 nM; in the assay with UO-31 renal, 1200 nM; with DU-145 prostate it was above 56700 nM. Moreover, the TGI is 58700 nM in the assay on OVCAR-5 ovarian, above 100000 nM in the assay with EKVX NSCLC, 40300 nM in the assay with RXF 393 renal and 33500 nM in the assay on HCT-15 colon.
